According to PMC11258883 (Protein Science : A Publication of the Protein Society, 2024):

Target: T1, MenD (Escherichia coli, UniProt P17109)
T1 sequence (P17109 1-556): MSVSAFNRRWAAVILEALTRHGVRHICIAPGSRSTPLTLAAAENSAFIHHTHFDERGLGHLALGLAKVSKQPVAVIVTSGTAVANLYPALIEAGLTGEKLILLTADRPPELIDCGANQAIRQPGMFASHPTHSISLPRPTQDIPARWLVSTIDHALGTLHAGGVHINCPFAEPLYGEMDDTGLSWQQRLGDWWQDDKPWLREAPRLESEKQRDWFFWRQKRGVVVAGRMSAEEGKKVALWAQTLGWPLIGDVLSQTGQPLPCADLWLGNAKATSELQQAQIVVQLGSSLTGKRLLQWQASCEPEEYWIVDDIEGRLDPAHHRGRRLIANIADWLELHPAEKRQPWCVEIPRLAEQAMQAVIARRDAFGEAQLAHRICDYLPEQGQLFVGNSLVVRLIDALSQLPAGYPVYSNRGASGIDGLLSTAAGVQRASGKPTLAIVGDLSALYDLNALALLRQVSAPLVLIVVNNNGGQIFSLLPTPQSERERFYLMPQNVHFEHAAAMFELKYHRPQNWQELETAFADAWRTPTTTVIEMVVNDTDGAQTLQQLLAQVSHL
Test: MenD activity assay, OD278 decrease
Assay type: biochemical
Settings: 66 nM MenD, 50 μM thiamine pyrophosphate, 660 μM 2-ketoglutarate, 5 mM MgSO4, pH 8.0; chorismate:isochorismate equilibrium mixture

C=C(O[C@H]1C=CC=C(C(=O)O)[C@@H]1O)C(=O)O [isochorismate]
MenD activity assay, OD278 decrease: initial velocities were measured as decrease in OD278 upon MenD consumption of isochorismate
